The text below walks through data of patent publication US12611378B2 (Bausch Health Ireland Limited, priority 2020, dated 2026).

The nature of this series: Regional bioavailability of rifaximin, open-label 5-way crossover study in healthy male subjects. The class given is in vivo, human. Particulars: based on comparisons of AUC0-24 with AUCact-24, geometric mean. The source says: Blood samples were collected pre-dose and at specified time points after dosing for PK analysis.

The structures appear in SMILES notation.

On to `CO[C@H]1/C=C/O[C@@]2(C)Oc3c(C)c(O)c4c(O)c(c5c(nc6cc(C)ccn65)c4c3C2=O)NC(=O)/C(C)=C\C=C\[C@H](C)[C@H](O)[C@@H](C)[C@@H](O)[C@@H](C)[C@H](OC(C)=O)[C@@H]1C` [Rifaximin, 4-Deoxy-4′-methylpyrido[1′,2′-1,2]imidazo[5,4-c]rifamycin SV], for which the Frel reads like this: (Regimen B: 150 mg rifaximin SSD delivered to the proximal small bowel) 36.4%; (Regimen C: 150 mg rifaximin SSD delivered to the distal small bowel) 2.09%; (Regimen D: 150 mg rifaximin SSD delivered to the colon) 0.216%; (Regimen E: 150 mg rifaximin SSD delivered to the mid small bowel) 7.08%.
